Where a name gives a salt, the structure may show the parent alone.
How the values were obtained:
P-388 leukemia cells = assay: Antitumor activity: P-388 leukemia cells inoculated intraperitoneally, drug administered intravenously, BDF1 mice; format: in vivo; conditions: BDF1 mice, P-388 i.p.; for response vs control in vivo at 50 mg/kg: dose d: 50 mg/kg × 3, i.v. on days 1, 5 and 9; for response vs control in vivo at 80 mg/kg: dose f: 80 mg/kg × 3, i.v. on days 1, 5 and 9; for response vs control in vivo at 20 mg/kg: dose b: 20 mg/kg × 3, i.v. on days 1, 5 and 9; for response vs control in vivo at 60 mg/kg: dose e: 60 mg/kg × 3, i.v. on days 1, 5 and 9
Method in brief: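 Drug dosing was intravenous on the first, fifth and ninth days after intraperitoneal inoculation of P-388 leukemia cells (1×10^6 per mouse) into BDF1 mice. Vehicles were physiological saline alone, or saline with small amounts of sodium carboxymethyl cellulose or Tween-80.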

[1] = Acute toxicity, intravenous (once), ddY mice; format: in vivo; conditions: mouse, in vivo, iv, formulated per Preparation Example
Description: In Table 7 are shown acute toxicity values (LD50, mg/kg) in ddY mice in the case of intravenously administering (once) each of the compounds of this invention in the form of preparations shown in the Preparation Examples shown in Table 7.

[2] = Mus musculus, P388, iv, read-out: T/C (%) of MST
[3] = Mus musculus, P388, iv, dose c: 40 mg/kg × 3, i.v. on days 1, 5 and 9, read-out: T/C (%) of MST

Row | Structure (SMILES) | LD50 [1] [mg/kg] | response vs control in vivo at 40 mg/kg (P-388 leukemia cells; [3]) [%] | response vs control in vivo at 80 mg/kg (P-388 leukemia cells; [2]) [%] | response vs control in vivo at 20 mg/kg (P-388 leukemia cells; [2]) [%] | further results
1 | COC1C(O)C(C)OC(OC2C(Oc3cccc4c(OC(=O)CNC(=O)OCc5ccccc5)c5c(=O)oc6ccc(C)c7c(=O)oc(c34)c5c67)OC(C)C3OC(C)(C)OC32)C1O (stereo not shown) [compound 108, 6-O-(N-carbobenzyloxyglycyl)-3',4'-O-isopropylidene-chartreusin] | ≥ 100 | – | – | – | response vs control in vivo at 50 mg/kg (P-388 leukemia cells; [2]): 163%
2 | COC1C(O)C(C)OC(OC2C(Oc3cccc4c(OC(=O)CCNC=O)c5c(=O)oc6ccc(C)c7c(=O)oc(c34)c5c67)OC(C)C3OC(c4ccccc4Cl)OC32)C1O (stereo not shown) [Compound No. 58] | ≥ 80 | 162 | 216 | – | –
3 | COC1C(O)C(C)OC(OC2C(Oc3cccc4c(OC(=O)C5CCCCC5NC(=O)C(F)(F)F)c5c(=O)oc6ccc(C)c7c(=O)oc(c34)c5c67)OC(C)C3OC(c4ccccc4)OC32)C1O (single isomer, unassigned) [Compound No. 118, 6-O-(N-Trifluoroacetyl-2-Amino-Cyclohexanecarbonyl)-3',4'-O-Benzylidene-Chartreusin] | ≥ 40 | – | – | – | T/C (%) of MST (P-388 leukemia cells; dose c: 40 mg/kg × 3, i.v. on days 1, 5 and 9): 135%
4 | COC1C(O)C(C)OC(OC2C(Oc3cccc4c(OC(=O)COC(C)=O)c5c(=O)oc6ccc(C)c7c(=O)oc(c34)c5c67)OC(C)C3OC(c4ccccc4)OC32)C1O (stereo not shown) [Compound No. 148] | ≥ 40 | 250 | – | 185 | –
5 | COC1C(O)C(C)OC(OC2C(Oc3cccc4c(OC(=O)CC(C)C)c5c(=O)oc6ccc(C)c7c(=O)oc(c34)c5c67)OC(C)C3OC(c4ccccc4)OC32)C1O (stereo not shown) [Compound No. 169, 6-O-(3-Methyl-n-Butyryl)-3',4'-O-Benzylidene-Chartreusin] | ≥ 40 | – | – | 202 | –
6 | COC1C(O)C(C)OC(OC2C(Oc3cccc4c(OC(=O)CCCl)c5c(=O)oc6ccc(C)c7c(=O)oc(c34)c5c67)OC(C)C3OC(c4ccccc4)OC32)C1O (stereo not shown) [Compound No. 164] | ≥ 40 | – | – | 198 | –
7 | CCN(CC)CCC(=O)Oc1c2cccc(OC3OC(C)C4OC(c5cccc(F)c5)OC4C3OC3OC(C)C(O)C(OC)C3O)c2c2oc(=O)c3c(C)ccc4oc(=O)c1c2c43 (stereo not drawn) [Compound No. 15, 6-O-(N,N-diethyl-β-alanyl)-3',4'-O-(m-fluorobenzylidene)-chartreusin hydrochloride] | ≥ 30 | – | – | 189 | –
8 | COC1C(O)C(C)OC(OC2C(Oc3cccc4c(OC(=O)CCNC(=O)C(Cl)(Cl)Cl)c5c(=O)oc6ccc(C)c7c(=O)oc(c34)c5c67)OC(C)C3OC(C)(C)OC32)C1O (stereo not drawn) [Compound No. 112, 6-O-(N-Trichloroacetyl-β-Alanyl)-3',4'-O-Isopropylidene-Chartreusin] | ≥ 100 | – | – | – | response vs control in vivo at 50 mg/kg (P-388 leukemia cells; [2]): 148%
9 | CC=CC=CC(=O)Oc1c2cccc(OC3OC(C)C4OC(C)(C)OC4C3OC3OC(C)C(O)C(OC)C3O)c2c2oc(=O)c3c(C)ccc4oc(=O)c1c2c43 (stereo not shown) [compound 238] | ≥ 80 | 130 | 192 | – | –
10 | COC1C(O)C(C)OC(OC2C(Oc3cccc4c(OC(=O)CCCCCBr)c5c(=O)oc6ccc(C)c7c(=O)oc(c34)c5c67)OC(C)C3OC(C)(C)OC32)C1O (stereo not shown) [compound 235] | ≥ 60 | 145 | – | – | –
11 | COC1C(O)C(C)OC(OC2C(Oc3cccc4c(OC(=O)CCCO)c5c(=O)oc6ccc(C)c7c(=O)oc(c34)c5c67)OC(C)C3OC(c4ccccc4)OC32)C1O (stereo not shown) [Compound No. 147, 6-O-(4-Hydroxy-n-Butyryl)-3',4'-O-Benzylidene-Chartreusin] | ≥ 40 | – | – | 214 | –
12 | COC1C(O)C(C)OC(OC2C(Oc3cccc4c(OC(=O)CCCCNC(=O)C(F)(F)F)c5c(=O)oc6ccc(C)c7c(=O)oc(c34)c5c67)OC(C)C3OC(c4ccccc4)OC32)C1O (stereo not shown) [Compound No. 43] | ≥ 40 | – | – | 226 | –
13 | COC1C(O)C(C)OC(OC2C(Oc3cccc4c(OC(=O)CCN5CCCC5)c5c(=O)oc6ccc(C)c7c(=O)oc(c34)c5c67)OC(C)C3OC(c4cccc(F)c4)OC32)C1O (stereo not drawn) [Compound No. 34, 6-O-(β-1-pyrrolidinyl-propionyl)-3',4'-O-(m-fluorobenzylidene)-chartreusin phosphate] | ≥ 30 | 140 | – | – | –
14 | COC1C(O)C(C)OC(OC2C(Oc3cccc4c(OC(=O)CCNC=O)c5c(=O)oc6ccc(C)c7c(=O)oc(c34)c5c67)OC(C)C3OC(c4ccc(F)cc4)OC32)C1O (stereo not shown) [compound 92] | ≥ 40 | 192 | – | 146 | –
15 | CO[C@H]1[C@@H](O)[C@@H](C)O[C@H](O[C@H]2[C@H](Oc3cccc4c(OC(=O)COc5ccccc5)c5c(=O)oc6ccc(C)c7c(=O)oc(c34)c5c67)O[C@H](C)[C@@H]3OC(C)(C)O[C@@H]32)[C@@H]1O [compound 205] | ≥ 80 | 153 | 173 | – | –
16 | COC1C(O)C(C)OC(OC2C(Oc3cccc4c(OC(=O)C5CC=CCC5)c5c(=O)oc6ccc(C)c7c(=O)oc(c34)c5c67)OC(C)C3OC(C)(C)OC32)C1O (stereo not shown) [Compound No. 223, 6-O-(3-Cyclohexene-1-Carbonyl)-3',4'-O-Isopropylidene-Chartreusin] | ≥ 60 | – | – | – | response vs control in vivo at 60 mg/kg (P-388 leukemia cells; [2]): 172%
17 | COC1C(O)C(C)OC(OC2C(Oc3cccc4c(OC(=O)C(C)CNC(=O)OCc5ccccc5)c5c(=O)oc6ccc(C)c7c(=O)oc(c34)c5c67)OC(C)C3OC(c4cccc(F)c4)OC32)C1O (stereo not shown) [Compound No. 60] | ≥ 40 | 210 | – | 176 | –
18 | COc1cccc(C(=O)Oc2c3cccc(O[C@@H]4O[C@H](C)[C@@H]5OC(CCc6ccccc6)O[C@@H]5[C@H]4O[C@H]4O[C@H](C)[C@H](O)[C@H](OC)[C@H]4O)c3c3oc(=O)c4c(C)ccc5oc(=O)c2c3c54)c1 (stereo partly shown) [compound 218] | ≥ 80 | – | 176 | – | –
19 | COC(=O)c1ccc(C(=O)Oc2c3cccc(O[C@@H]4O[C@H](C)[C@@H]5OC(c6ccco6)O[C@@H]5[C@H]4O[C@H]4O[C@H](C)[C@H](O)[C@H](OC)[C@H]4O)c3c3oc(=O)c4c(C)ccc5oc(=O)c2c3c54)cc1 (stereo partly shown) [compound 211] | ≥ 80 | – | 176 | – | –
20 | COC1C(O)C(C)OC(OC2C(Oc3cccc4c(OC(=O)C(C)CNC(=O)C(F)(F)F)c5c(=O)oc6ccc(C)c7c(=O)oc(c34)c5c67)OC(C)C3OC(C)(C)OC32)C1O (stereo not shown) [compound 85] | ≥ 100 | – | 157 | – | –
21 | COC1C(O)C(C)OC(OC2C(Oc3cccc4c(OC(=O)CCCCCCCCCCCNC(C)=O)c5c(=O)oc6ccc(C)c7c(=O)oc(c34)c5c67)OC(C)C3OC(C)(C)OC32)C1O (stereo not shown) [compound 129] | ≥ 180 | – | – | – | response vs control in vivo at 160 mg/kg (P-388 leukemia cells; Mus musculus, P388, iv, dose i: 160 mg/kg × 3, i.v. on days 1, 5 and 9, read-out: T/C (%) of MST): 167%
22 | COC1C(O)C(C)OC(OC2C(Oc3cccc4c(OC(=O)CC(C)CC(C)(C)C)c5c(=O)oc6ccc(C)c7c(=O)oc(c34)c5c67)OC(C)C3OC(C)(C)OC32)C1O (stereo not shown) [compound 237] | ≥ 60 | – | – | – | response vs control in vivo at 60 mg/kg (P-388 leukemia cells; [2]): 242%
23 | CO[C@H]1[C@@H](O)[C@@H](C)O[C@H](O[C@H]2[C@H](Oc3cccc4c(OC(=O)C5CC5)c5c(=O)oc6ccc(C)c7c(=O)oc(c34)c5c67)O[C@H](C)[C@@H]3OC(C)(C)O[C@@H]32)[C@@H]1O [Compound No. 177] | ≥ 80 | 153 | 208 | – | –
24 | CCC1(C)O[C@H]2[C@@H](O1)[C@@H](C)O[C@@H](Oc1cccc3c(OC(=O)CC(C)NC(=O)C(F)(F)F)c4c(=O)oc5ccc(C)c6c(=O)oc(c13)c4c56)[C@@H]2O[C@H]1O[C@H](C)[C@H](O)[C@H](OC)[C@H]1O (stereo partly shown) [compound 131] | ≥ 100 | – | 148 | – | –
25 | COC1C(O)C(C)OC(OC2C(Oc3cccc4c(OC(=O)CCNC=O)c5c(=O)oc6ccc(C)c7c(=O)oc(c34)c5c67)OC(C)C3OC(c4cccc(F)c4)OC32)C1O (stereo not shown) [Compound No. 46] | ≥ 80 | 157 | 210 | – | –
26 | COC1C(O)C(C)OC(OC2C(Oc3cccc4c(OC(=O)C(NC(=O)OCc5ccccc5)C(C)C)c5c(=O)oc6ccc(C)c7c(=O)oc(c34)c5c67)OC(C)C3OC(c4ccccc4Cl)OC32)C1O (stereo not shown) [compound 105] | ≥ 80 | – | 216 | – | –
27 | COC1C(O)C(C)OC(OC2C(Oc3cccc4c(OC(=O)CCNC(=O)OCc5ccccc5)c5c(=O)oc6ccc(C)c7c(=O)oc(c34)c5c67)OC(C)C3OC(c4ccccc4)OC32)C1O (stereo not shown) [compound 72] | ≥ 40 | – | – | 167 | –
28 | COC1C(O)C(C)OC(OC2C(Oc3cccc4c(OC(=O)CCNC=O)c5c(=O)oc6ccc(C)c7c(=O)oc(c34)c5c67)OC(C)C3OC(C)(C)OC32)C1O (stereo not drawn) [Compound No. 48, 6-O-(N-formyl-β-alanyl)-3',4'-O-isopropylidene-chartreusin] | ≥ 120 | – | 172 | – | –

— US4760136A, “Chartreusin derivatives and salts thereof” (Ishihara Sangyo Kaisha, Ltd., priority 1984, dated 1988)
